Results taken from ChEMBL document CHEMBL4706683 (J Med Chem, 2021).
The source made the active and inactive calls. The calls are words filed in the database; no cut-off is given here.

How the values were obtained:
Histone deacetylase 1 = Histone deacetylase 1 (Homo sapiens, UniProt Q13547); type: ADME, cell-based, Sf9
Histone deacetylase 8 = biological target: T1, Histone deacetylase 8 (Homo sapiens, UniProt Q9BY41); test: Inhibition of full length human C-terminal His-tagged HDAC8 expressed in baculovirus infected Sf9 cells using Ac-peptide as substrate preincubated for 15 mins followed by substrate addition and incubated for 120 mins followed by trypsin addition and further incubated for 240 mins
T1 sequence (Q9BY41 whole entry): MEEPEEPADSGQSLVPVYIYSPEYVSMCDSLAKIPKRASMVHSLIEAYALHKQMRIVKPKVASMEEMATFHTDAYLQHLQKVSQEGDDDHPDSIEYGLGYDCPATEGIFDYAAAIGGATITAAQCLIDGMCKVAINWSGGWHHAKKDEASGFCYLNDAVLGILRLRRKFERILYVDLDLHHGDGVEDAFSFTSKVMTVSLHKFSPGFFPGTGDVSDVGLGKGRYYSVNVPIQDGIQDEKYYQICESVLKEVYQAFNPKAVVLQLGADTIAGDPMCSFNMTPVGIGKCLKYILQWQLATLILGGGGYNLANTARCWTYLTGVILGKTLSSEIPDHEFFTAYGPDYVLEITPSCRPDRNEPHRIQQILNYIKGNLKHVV

[1] = Oral bioavailability in Balb/c mouse at 10 mg/kg administered as single dose measured upto 24 hrs by LC-MS/MS analysis; type: ADME, organism-based; conditions: in vivo
Plasmodium falciparum = test: Antiplasmodial activity against artemisinin-resistant Plasmodium falciparum 6218 assessed as reduction in parasite survival at 700 nM incubated for 6 hrs followed by compound washout thrice and further cultured in compound free medium for 66 hrs by RSA; type: functional, organism-based

Sequence of Histone deacetylase 1 (Q13547 whole entry): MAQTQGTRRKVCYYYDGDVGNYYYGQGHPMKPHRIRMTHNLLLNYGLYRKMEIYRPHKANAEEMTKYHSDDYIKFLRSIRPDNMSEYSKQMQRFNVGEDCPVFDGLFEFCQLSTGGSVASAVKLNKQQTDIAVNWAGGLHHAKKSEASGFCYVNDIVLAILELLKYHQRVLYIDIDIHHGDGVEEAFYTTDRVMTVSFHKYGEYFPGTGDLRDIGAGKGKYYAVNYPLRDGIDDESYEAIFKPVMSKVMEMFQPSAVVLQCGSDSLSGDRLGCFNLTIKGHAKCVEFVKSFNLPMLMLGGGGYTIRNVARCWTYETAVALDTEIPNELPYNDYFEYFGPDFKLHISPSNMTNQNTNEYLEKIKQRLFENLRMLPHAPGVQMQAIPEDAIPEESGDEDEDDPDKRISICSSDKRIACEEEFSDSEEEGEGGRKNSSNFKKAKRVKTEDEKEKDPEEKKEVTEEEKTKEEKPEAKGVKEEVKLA

SMILES: Cl.O=C(NO)c1cnc(N2CCC3(CCN(Cc4c[nH]c5ccccc45)C3)CC2)nc1
- IC50 (Histone deacetylase 1): 0.58 nM
- IC50 (Histone deacetylase 8): 16 nM
- bioavailability [1]: 0.5%
- Activity (Plasmodium falciparum): Active
